Measurements: ChEMBL document CHEMBL1201862, “PubChem BioAssay data set” (2004)
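The compound was tested at five concentrations on cells cultured in 96-well plates, with a 48-hour exposure period. The concentration for 50% growth inhibition is given as GI50.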 Calls of active or inactive are those of the source. Cut-off read from the data, not from the text of the source: active = GI50 up to about 1.1 µM and inactive = higher.

Tests used:
Experiment in all cases: NCI-60 cell line screen, 48 h
U-251 = test system: U-251
NCI-H226 = test system: NCI-H226
786-0 = test system: 786-0
SK-MEL-2 = test system: SK-MEL-2
HCT-15 = test system: HCT-15
A549 = test system: A549
A498 = test system: A498
HCT-116 = test system: HCT-116
HT-29 = test system: HT-29
COLO 205 = test system: COLO 205
UO-31 = test system: UO-31
SNB-75 = test system: SNB-75
NCI-H23 = test system: NCI-H23
LOX IMVI = test system: LOX IMVI
SW-620 = test system: SW-620
CAKI-1 = test system: CAKI-1

Structure (SMILES)	GI50 (U-251)	GI50 (NCI-H226)	GI50 (786-0)	GI50 (SK-MEL-2)	GI50 (HCT-15) [µM]	GI50 (A549)	GI50 (A498)	GI50 (HCT-116)	GI50 (HT-29)	GI50 (COLO 205)	GI50 (UO-31)	GI50 (SNB-75)	GI50 (NCI-H23)	GI50 (LOX IMVI)	GI50 (SW-620)	GI50 (CAKI-1)
O=c1oc2cc(O)ccc2c2[nH]c3cc(O)ccc3c12	21.4 µM (inactive)	21.4 µM (inactive)	30.8 µM (inactive)	19.1 µM (inactive)	27	42.7 µM (inactive)	36.1 µM (inactive)	17.4 µM (inactive)	35.1 µM (inactive)	23.9 µM (inactive)	26.2 µM (inactive)	16.3 µM (inactive)	24.5 µM (inactive)	18.5 µM (inactive)	34 µM (inactive)	–
CCCCCCCCCCCCCCCCCCCCCCC(=O)N[C@H]1CCc2cc(OC)c(OC)c(OC)c2-c2ccc(SC)c(=O)cc21	24.2 µM (inactive)	2.52 µM (inactive)	40.2 µM (inactive)	–	26.4	26.4 µM (inactive)	11.5 µM (inactive)	26 µM (inactive)	30.6 µM (inactive)	12.8 µM (inactive)	48 µM (inactive)	20.2 µM (inactive)	25.5 µM (inactive)	–	30.3 µM (inactive)	46.7 µM (inactive)
O=[N+]([O-])c1cc(/C=N\NS(=O)(=O)c2ccc(Cl)cc2)c(O)c([N+](=O)[O-])c1	24 µM (inactive)	–	36.1 µM (inactive)	31.1 µM (inactive)	21.4	37.8 µM (inactive)	35.7 µM (inactive)	30.1 µM (inactive)	24.9 µM (inactive)	16.1 µM (inactive)	71.4 µM (inactive)	24.9 µM (inactive)	22.2 µM (inactive)	37.8 µM (inactive)	34.6 µM (inactive)	30.5 µM (inactive)
Cc1cc(Br)cc(C)c1NC(=O)C(=O)C(C(=O)c1ccc(Cl)c(Cl)c1)C1OC(=O)c2ccccc21 (stereo unspecified)	44.6 µM (inactive)	72.6 µM (inactive)	86.1 µM (inactive)	> 100 µM (inactive)	50.2	74.3 µM (inactive)	26.3 µM (inactive)	48.4 µM (inactive)	29.9 µM (inactive)	47.5 µM (inactive)	26.2 µM (inactive)	–	95.7 µM (inactive)	> 100 µM (inactive)	> 100 µM (inactive)	34.8 µM (inactive)
CC1(C)Cc2cc(C(=O)O)c3c(c2C1=O)COCC3	> 100 µM (inactive)	> 100 µM (inactive)	> 100 µM (inactive)	> 100 µM (inactive)	> 100	> 100 µM (inactive)	> 100 µM (inactive)	> 100 µM (inactive)	> 100 µM (inactive)	> 100 µM (inactive)	> 100 µM (inactive)	> 100 µM (inactive)	> 100 µM (inactive)	> 100 µM (inactive)	> 100 µM (inactive)	> 100 µM (inactive)
ON/N=C/c1cc2c(cc1Br)OCO2	329 µM (inactive)	> 386 µM (inactive)	> 386 µM (inactive)	> 386 µM (inactive)	–	> 386 µM (inactive)	–	> 386 µM (inactive)	> 386 µM (inactive)	> 386 µM (inactive)	–	–	> 386 µM (inactive)	> 386 µM (inactive)	> 386 µM (inactive)	> 386 µM (inactive)
NCP(=O)(O)OCC(=O)O	> 100 µM (inactive)	–	> 100 µM (inactive)	> 100 µM (inactive)	> 100	> 100 µM (inactive)	> 100 µM (inactive)	> 100 µM (inactive)	> 100 µM (inactive)	> 100 µM (inactive)	> 100 µM (inactive)	> 100 µM (inactive)	> 100 µM (inactive)	> 100 µM (inactive)	> 100 µM (inactive)	> 100 µM (inactive)
O=C1C(Cl)=C(Cl)C(=O)N1c1ccccc1Cl	> 100 µM (inactive)	> 100 µM (inactive)	> 79.3 µM (inactive)	> 100 µM (inactive)	> 53.6	> 100 µM (inactive)	> 100 µM (inactive)	> 100 µM (inactive)	> 71 µM (inactive)	> 63.7 µM (inactive)	> 100 µM (inactive)	> 100 µM (inactive)	> 85.9 µM (inactive)	> 100 µM (inactive)	> 52.6 µM (inactive)	> 44.2 µM (inactive)
C#CC1(O)CCC2[C@@H]3CCc4cc(Oc5nc(F)nc(-c6c7ccccc7c(SCC)n6CCC)n5)ccc4C3CC[C@@]21C (stereo partly specified)	54.6 µM (inactive)	20.6 µM (inactive)	> 100 µM (inactive)	19.9 µM (inactive)	> 100	> 100 µM (inactive)	> 100 µM (inactive)	29.2 µM (inactive)	> 100 µM (inactive)	> 100 µM (inactive)	33.3 µM (inactive)	–	25 µM (inactive)	76 µM (inactive)	> 100 µM (inactive)	–
CCOc1ccc(OP2(=O)NC(=O)C=C(C)N2)cc1 (stereo unspecified)	> 100 µM (inactive)	> 100 µM (inactive)	92.9 µM (inactive)	> 100 µM (inactive)	> 100	> 100 µM (inactive)	> 100 µM (inactive)	> 100 µM (inactive)	> 100 µM (inactive)	> 100 µM (inactive)	> 100 µM (inactive)	> 100 µM (inactive)	> 100 µM (inactive)	> 100 µM (inactive)	> 100 µM (inactive)	> 100 µM (inactive)
CCOC(=O)C1C(=O)CC(=O)C2CCCCC21 (stereo unspecified)	> 100 µM (inactive)	–	> 100 µM (inactive)	> 100 µM (inactive)	> 100	> 100 µM (inactive)	> 100 µM (inactive)	> 100 µM (inactive)	–	> 100 µM (inactive)	> 100 µM (inactive)	> 100 µM (inactive)	> 100 µM (inactive)	> 100 µM (inactive)	> 100 µM (inactive)	> 100 µM (inactive)
O=C(N/C(=C\c1c(O)ccc2ccccc12)c1nc2ccccc2[nH]1)c1ccccc1	79.3 µM (inactive)	–	39.8 µM (inactive)	> 100 µM (inactive)	> 100	> 100 µM (inactive)	38.2 µM (inactive)	> 100 µM (inactive)	> 100 µM (inactive)	> 100 µM (inactive)	42.6 µM (inactive)	18.8 µM (inactive)	87.1 µM (inactive)	> 100 µM (inactive)	> 100 µM (inactive)	> 100 µM (inactive)
C[C@@]1(CBr)C[C@@](C)(/C=C/Cl)[C@@H](Cl)C[C@H]1Cl	14.2 µM (inactive)	12.8 µM (inactive)	14 µM (inactive)	2.74 µM (inactive)	–	12.3 µM (inactive)	16.9 µM (inactive)	7.03 µM (inactive)	9.04 µM (inactive)	13.5 µM (inactive)	15.6 µM (inactive)	16.1 µM (inactive)	13.3 µM (inactive)	11.5 µM (inactive)	13.9 µM (inactive)	17.3 µM (inactive)
CN(C(=O)C12C3C4C1C1C2C3C41C#N)C(C)(C)C (stereo unspecified)	> 100 µM (inactive)	> 100 µM (inactive)	> 100 µM (inactive)	> 100 µM (inactive)	–	> 100 µM (inactive)	> 100 µM (inactive)	> 100 µM (inactive)	> 100 µM (inactive)	> 100 µM (inactive)	> 100 µM (inactive)	69.2 µM (inactive)	> 100 µM (inactive)	> 100 µM (inactive)	> 100 µM (inactive)	> 100 µM (inactive)
COc1cc(OC)c2c(=O)cc(-c3ccc(OC)c(OC)c3OC)oc2c1	–	> 100 µM (inactive)	38.5 µM (inactive)	60.1 µM (inactive)	> 100	> 100 µM (inactive)	–	> 100 µM (inactive)	> 100 µM (inactive)	> 100 µM (inactive)	–	6.95 µM (inactive)	> 100 µM (inactive)	> 100 µM (inactive)	> 100 µM (inactive)	> 100 µM (inactive)
O=C1CCC2(c3ccccc3)Nc3cc(Cl)ccc3N12 (stereo unspecified)	48 µM (inactive)	19.2 µM (inactive)	35.6 µM (inactive)	22.2 µM (inactive)	35.2	31 µM (inactive)	35.4 µM (inactive)	–	31.7 µM (inactive)	17.7 µM (inactive)	25.5 µM (inactive)	16 µM (inactive)	22.3 µM (inactive)	33 µM (inactive)	41.5 µM (inactive)	21 µM (inactive)
CC12CC3CC(C)(C1)CC(N=[N+]=[N-])(C3)C2	> 100 µM (inactive)	> 100 µM (inactive)	> 100 µM (inactive)	> 100 µM (inactive)	–	> 100 µM (inactive)	> 100 µM (inactive)	> 100 µM (inactive)	> 100 µM (inactive)	> 100 µM (inactive)	> 100 µM (inactive)	> 100 µM (inactive)	> 100 µM (inactive)	> 100 µM (inactive)	> 100 µM (inactive)	> 100 µM (inactive)
N#CC1(C#N)C=CC(=C2OCC3CCCN23)C=C1 (stereo unspecified)	> 100 µM (inactive)	> 100 µM (inactive)	> 100 µM (inactive)	> 100 µM (inactive)	> 100	> 100 µM (inactive)	> 100 µM (inactive)	> 100 µM (inactive)	> 100 µM (inactive)	> 100 µM (inactive)	> 100 µM (inactive)	52.2 µM (inactive)	–	> 100 µM (inactive)	> 100 µM (inactive)	> 100 µM (inactive)
O=C1C=C/C(=N\c2ccc3c(c2)C(Br)c2ccccc2-3)O1 (stereo unspecified)	> 100 µM (inactive)	–	29 µM (inactive)	–	> 100	> 100 µM (inactive)	–	> 100 µM (inactive)	–	> 100 µM (inactive)	> 100 µM (inactive)	> 100 µM (inactive)	> 100 µM (inactive)	45.6 µM (inactive)	27.6 µM (inactive)	–
